system: red blood cells (5% RBC suspension); experiment: Test Example 2-2: in vitro hemolytic activity test (upper limit 200 μmol/L); type: cell-based; details: Erythrocyte, 1 h, read-out: hemolysis IC50
Description: Nephrotoxic potentials of the compounds of the present invention whose X is —N(R^F)—CO—X^1 and X^1 is the group represented by formula (III) and T is —N(R^a5)— were investigated by in vitro hemolytic activity test under the condition that the upper limit was 200 μmol/L as the required concentration to 50% of hemolysis (IC50).
Defibrinated sterile blood was centrifuged at 700×g for 3 minutes and, and the supernatant was removed for 100% of red blood cells. After the cleaning with physiological saline, the washed blood cells was suspended in the medium (Earle's balanced salt sodium, bicarbonate, 0.1 g/L L-glutamine without phenol red), and was diluted by 5% (5% RBC suspension).
The washed blood was diluted by 5% in water for injection (solution of complete hemolysis), and was used as the indication of optical density for complete hemolysis.
The compounds of the present invention solution in DMSO (several and doubling dilutions starting from 10 mmol/L), DMSO as the negative control, and Amphotericin B as the positive control were used, and each 5 μL of these was added in to a well of V-form 96 well type microplate. Finally, the maximum concentration of the compounds of the present invention solution in DMSO was 200 μmol/L by adding 245 μL of the medium or 5% RBC suspension into the well.
Two hundred fifty μL of the solution of complete hemolysis was added into another well and the microplate was incubated at 37° C. in 5% of CO2 concentration for an hour.
After the incubation, each 100 μL of supernatants in wells was collected by centrifugation of the microplate at 300×g for 5 minutes and was located on a well of flat-form 96 well type microplate. An absorbance of each supernatant was measured at wavelength of 540 nm.
Percent hemolysis was calculated by using the followed equation. The required concentration to 50% of hemolysis (IC50) was calculated based on the percent hemolysis. […] Hemolysis (%)=(CR−VM)×100÷(VL−VR) Where:
CR: Absorbance of 5% RBC suspension incubated with the compounds of the present invention solution in DMSO
VM: Absorbance of medium incubated with the compounds of the present invention solution in DMSO
VL: Absorbance of solution of complete hemolysis
VR: Absorbance of 5% RBC suspension incubated with DMSO
The “>200” in the table means above IC50 value exceeded the upper concentration 200 μmol/L.

SMILES	IC50 [µM]
C[C@@H]1[C@H](O)[C@@H](C)/C=C/C=C/C=C/C=C/C=C/C=C/C=C/[C@H](O[C@@H]2O[C@H](C)[C@@H](O)[C@H](N)[C@@H]2O)C[C@@H]2O[C@](O)(C[C@@H](O)C[C@@H](O)[C@H](O)CC[C@@H](O)C[C@@H](O)CC(=O)O[C@H]1C)C[C@H](O)[C@H]2NC(=O)NNC(=O)C1(S(C)(=O)=O)CC1 [I-263]	> 200
C[C@@H]1[C@H](O)[C@@H](C)/C=C/C=C/C=C/C=C/C=C/C=C/C=C/[C@H](O[C@@H]2O[C@H](C)[C@@H](O)[C@H](N)[C@@H]2O)C[C@@H]2O[C@](O)(C[C@@H](O)C[C@@H](O)[C@H](O)CC[C@@H](O)C[C@@H](O)CC(=O)O[C@H]1C)C[C@H](O)[C@H]2NC(=O)NNS(=O)(=O)c1nnc[nH]1 [I-246]	> 200

same assay, conditions: Erythrocyte, 1 h; Test Example 2-2; hemolysis method 200 (upper concentration 200 μmol/L); 5% RBC suspension, 37° C., one hour; read-out: hemolysis IC50

SMILES	IC50 [µM]
C[C@@H]1[C@H](O)[C@@H](C)/C=C/C=C/C=C/C=C/C=C/C=C/C=C/[C@H](O[C@@H]2O[C@H](C)[C@@H](O)[C@H](N)[C@@H]2O)C[C@@H]2O[C@](O)(C[C@@H](O)C[C@@H](O)[C@H](O)CC[C@@H](O)C[C@@H](O)CC(=O)O[C@H]1C)C[C@H](O)[C@H]2NC(=O)NNC(=O)[C@H](O)CO [I-223]	> 200
C[C@@H]1[C@H](O)[C@@H](C)/C=C/C=C/C=C/C=C/C=C/C=C/C=C/[C@H](O[C@@H]2O[C@H](C)[C@@H](O)[C@H](N)[C@@H]2O)C[C@@H]2O[C@](O)(C[C@@H](O)C[C@@H](O)[C@H](O)CC[C@@H](O)C[C@@H](O)CC(=O)O[C@H]1C)C[C@H](O)[C@H]2NC(=O)NNCCN(C)C [I-78]	> 200

same assay, conditions: Test Example 2-2; hemolysis method 200 (upper concentration 200 μmol/L); 5% RBC suspension, 37° C., one hour; read-out: hemolysis IC50

SMILES	IC50 [µM]
C[C@@H]1[C@H](O)[C@@H](C)/C=C/C=C/C=C/C=C/C=C/C=C/C=C/[C@H](O[C@@H]2O[C@H](C)[C@@H](O)[C@H](N)[C@@H]2O)C[C@@H]2O[C@](O)(C[C@@H](O)C[C@@H](O)[C@H](O)CC[C@@H](O)C[C@@H](O)CC(=O)O[C@H]1C)C[C@H](O)[C@H]2NC(=O)NNC(=O)Nc1ccccn1 [I-221]	> 200
C[C@@H]1[C@H](O)[C@@H](C)/C=C/C=C/C=C/C=C/C=C/C=C/C=C/[C@H](O[C@@H]2O[C@H](C)[C@@H](O)[C@H](N)[C@@H]2O)C[C@@H]2O[C@](O)(C[C@@H](O)C[C@@H](O)[C@H](O)CC[C@@H](O)C[C@@H](O)CC(=O)O[C@H]1C)C[C@H](O)[C@H]2NC(=O)NNS(=O)(=O)c1c[nH]cn1 [I-214]	> 200
C[C@@H]1[C@H](O)[C@@H](C)/C=C/C=C/C=C/C=C/C=C/C=C/C=C/[C@H](O[C@@H]2O[C@H](C)[C@@H](O)[C@H](N)[C@@H]2O)C[C@@H]2O[C@](O)(C[C@@H](O)C[C@@H](O)[C@H](O)CC[C@@H](O)C[C@@H](O)CC(=O)O[C@H]1C)C[C@H](O)[C@H]2NC(=O)NNC(=O)CO [I-243]	> 200
C[C@@H]1[C@H](O)[C@@H](C)/C=C/C=C/C=C/C=C/C=C/C=C/C=C/[C@H](O[C@@H]2O[C@H](C)[C@@H](O)[C@H](N)[C@@H]2O)C[C@@H]2O[C@](O)(C[C@@H](O)C[C@@H](O)[C@H](O)CC[C@@H](O)C[C@@H](O)CC(=O)O[C@H]1C)C[C@H](O)[C@H]2NC(=O)NNC(=O)C1(CO)CC1 [I-247]	> 200
C[C@@H]1[C@H](O)[C@@H](C)/C=C/C=C/C=C/C=C/C=C/C=C/C=C/[C@H](O[C@@H]2O[C@H](C)[C@@H](O)[C@H](N)[C@@H]2O)C[C@@H]2O[C@](O)(C[C@@H](O)C[C@@H](O)[C@H](O)CC[C@@H](O)C[C@@H](O)CC(=O)O[C@H]1C)C[C@H](O)[C@H]2NC(=O)NNC(=O)C[C@@H](O)C(=O)O [I-253]	> 200
C[C@@H]1[C@H](O)[C@@H](C)/C=C/C=C/C=C/C=C/C=C/C=C/C=C/[C@H](O[C@@H]2O[C@H](C)[C@@H](O)[C@H](N)[C@@H]2O)C[C@@H]2O[C@](O)(C[C@@H](O)C[C@@H](O)[C@H](O)CC[C@@H](O)C[C@@H](O)CC(=O)O[C@H]1C)C[C@H](O)[C@H]2NC(=O)NNc1ncccc1C(F)(F)F [I-124]	> 200
C[C@@H]1[C@H](O)[C@@H](C)/C=C/C=C/C=C/C=C/C=C/C=C/C=C/[C@H](O[C@@H]2O[C@H](C)[C@@H](O)[C@H](N)[C@@H]2O)C[C@@H]2O[C@](O)(C[C@@H](O)C[C@@H](O)[C@H](O)CC[C@@H](O)C[C@@H](O)CC(=O)O[C@H]1C)C[C@H](O)[C@H]2NC(=O)NNC(=O)C1CCC(O)CC1 (some centres unmarked) [I-239]	> 200
